According to publication PMC7915867, “Discovery of a Small Molecule Inhibitor of Human Adenovirus Capable of Preventing Escape from the Endosome” (International Journal of Molecular Sciences, 2021):
Like-named read-outs stand apart in the source and are kept apart here.

Tests used:
HAdV5-GFP [1] = conditions: read-out: IC50 (anti-HAdV); cited from earlier work
A549 cells = conditions: cited from earlier work
[2] = Cytotoxicity assay (AlamarBlue); format: cell-based; conditions: human, A549 cells, A549 cell line
Method: The cytotoxicity of these derivatives was tested by commercial kit AlamarBlue® (Ref. DAL1025, Invitrogen, MA, USA). […] The cytotoxic concentration 50 (CC50) value was obtained by using the statistical package GraphPad Prism. This assay was performed in duplicate.

HAdV5-GFP [3] = test: microbe, parasite or virus in culture; format: cell-based, human adenovirus; conditions: for inhibition at 10 µM / IC50: Human adenovirus sp.; for inhibition at 10 µM: read-out: Plaque Assay (10 μM) (%) Inhibition; for IC50: read-out: Plaque Assay IC50; for Selectivity Index (SI): ratio of CC50 to IC50 in plaque assay; for Plaque Assay (10 μM) (%) Inhibition: HAdV5-GFP, low MOI (0.06 vp/cell), 293β5 cell line
Method: Compounds were measured at concentrations of 10 μM and in a dose−response assay ranging from 10 to 0.3 μM using low MOI infections (0.06 vp/cell) in a plaque assay. […] Cells were infected with HAdV5-GFP (0.06 vp/cell) and rocked for 2 h at 37 °C, when cells reached 80%–90% confluency. When the incubation was finished, the inoculum was removed followed by washing the cells once with PBS. […] The compounds were also added to the mixture in concentrations ranging from 10 to 0.3 μM. After incubation for 7 days at 37 °C, we scanned plates with a Typhoon FLA 9000 imager (GE Healthcare Life Sciences, MA, USA) and quantified plaques with ImageJ [47].

HAdV5 = test: HAdV-mediated endosome disruption (α-sarcin co-delivery assay); format: cell-based, human adenovirus; conditions: A549 cells, niclosamide 5 μM, independent of virus concentration
Method: A549 cells (~20,000 cells/well) were incubated in DMEM without cysteine or methionine supplemented with 10% dialyzed FBS [DMEM (−)] in black 96-well plates for 1 h before infection. […] The medium was then removed and replaced with 50 μL DMEM (−) containing 0.1 mg/mL α-sarcin (Santa Cruz Biotechnology, Dallas, TX, USA) and the virus and drug mixtures. After 2 h at 37 °C, the Click-iT HPG Alexa Fluor 488 Protein Synthesis Assay Kits (Invitrogen, MA, USA) were used to analyze protein synthesis according to the manufacturer’s instructions. The incorporation of the amino acid analog of methionine L-homopropargylglycine (HPG) containing Alexa Fluor 488 azide was measured using a Typhoon 9410 imager (GE Healthcare Life Sciences, MA, USA) and calculated subtracting the background level of the control well containing L-homopropargylglycine (HPG) and α-sarcin but not virus (100% incorporation).

HAdV-5 DNA replication = test: HAdV DNA quantification by real-time PCR (DNA replication); format: cell-based, human adenovirus; conditions: A549 cells, 24 h, HAdV5 100 vp/cell; 16 at 7.8 μM (10-fold IC50), niclosamide 5 μM; versus DMSO
Method: All samples were carried out in duplicate. After incubation for 24 h at 37 °C, DNA was purified from the cell lysate with the E.Z.N.A.® Tissue DNA Kit (Omega Bio-tek, Norcross, GA, USA) following the manufacturer’s instructions. TaqMan primers and probes for a common region of the HAdV5 hexon were designed with the GenScript Real-Time PCR (TaqMan) Primer Design software (GenScript, Leiden, Netherlands). Oligonucleotides sequences were: AQ1: 5′-GCCACGGTGGGGTTTCTAAACTT-3′; AQ2: 5′-GCCCCAGTGGTCTTACATGCACAT-3′; Probe: 6-FAM-5′-TGCACCAGACCCGGGCTCAGGTACTCCGA-3′-TAMRA. Real-time PCR mixtures contained 9.5 μL of the purified DNA, AQ1 and AQ2 at a concentration of 200 nM each and Probe at a concentration of 50 nM in a total volume of 25 μL. The PCR cycling protocol was 95 °C for 3 min followed by 40 cycles of 95 °C for 10 s and 60 °C for 30 s. Human glyceraldehyde-3-phosphate dehydrogenase (GAPDH) gene was applied as internal control. Oligonucleotides sequences for GAPDH and conditions were previously reported by Rivera et al..
For quantification, gene fragments from hexon and GAPDH were cloned into the pGEM-T Easy vector (Promega, MA, USA), and known concentrations of template were used to produce a standard curve in parallel for each experiment. All assays were done in thermal cycler LightCycler® 96 System (Roche, Basel, Switzerland).

wild-type HAdV5 = test: Virus yield reduction (virus burst assay); format: cell-based, human adenovirus; conditions: A549 cells, HAdV 100 vp/cell, 48 h; niclosamide 5 μM, 16 at 10-fold IC50; versus DMSO
Method: After 48 h, cells were harvested and subjected to three rounds of freeze/thaw. Serial dilutions of clarified lysates were titrated on A549 cells (3 × 10^4 cells/well), and we calculated TCID50 values using an endpoint dilution method.

For O=C(Nc1cc(F)cc(C(F)(F)F)c1)c1cc(Cl)ccc1O [Compound 4], the IC50 (HAdV5-GFP [1]) is given as 180 nM and the CC50 (A549 cells) is given as 120 µM.
C[C@H](NC(=O)c1cc(Cl)ccc1O)C1CCCCC1 [Compound 17, (S)-5-Chloro-N-(1-cyclohexylethyl)-2-hydroxybenzamide] gave a CC50 at 48 h [2] of 23 ± 1.3 µM, an inhibition at 10 µM (HAdV5-GFP [3]) of 100% and an IC50 (HAdV5-GFP [3]) of 510 ± 140 nM. The “Selectivity Index (SI)” value (HAdV5-GFP [3]) was 45.1.
With O=C(Nc1ccc([N+](=O)[O-])cc1Cl)c1cc(Cl)ccc1O [Compound 3, niclosamide, reference compound] the “HPG incorporation compared to control without α-sarcin” value (HAdV5) was “under 50%”, the inhibition at 10 µM (HAdV5-GFP [3]) was 100% and the IC50 (HAdV5-GFP [3]) was 600 ± 50 nM. The “Inhibition of HAdV-5 DNA replication (qPCR)” value (HAdV-5 DNA replication) was “prevented any detectable DNA replication” and the “Virus Yield Reduction” value (wild-type HAdV5) was 82 ± 35 fold.
CCCCCCNC(=O)c1cc(Cl)ccc1O [Compound 24, 5-Chloro-N-hexyl-2-hydroxybenzamide] showed a CC50 at 48 h [2] of 23.8 ± 3.1 µM, an inhibition at 10 µM (HAdV5-GFP [3]) of 98.5 ± 2.1% and an IC50 (HAdV5-GFP [3]) of 3730 ± 640 nM. For the same molecule, the “Selectivity Index (SI)” value (HAdV5-GFP [3]) was 6.4.
CC(=O)N1CCN(C(=O)c2cc(Cl)ccc2O)CC1 [Compound 27, 1-(4-(5-Chloro-2-hydroxybenzoyl)piperazin-1-yl)ethanone] showed an inhibition at 10 µM (HAdV5-GFP [3]) of 0%.
In the case of O=C(NCC1CCOCC1)c1cc(Cl)ccc1O [Compound 18, 5-Chloro-2-hydroxy-N-((tetrahydro-2H-pyran-4-yl)methyl)benzamide], the “Plaque Assay (10 μM) (%) Inhibition” value (HAdV5-GFP [3]) is reported as “no anti-HAdV activity” and the inhibition at 10 µM (HAdV5-GFP [3]) is reported as 0%.
For CC(C)C(NC(=O)c1cc(Cl)ccc1O)C(=O)Nc1ccc([N+](=O)[O-])cc1Cl (stereo not drawn) [Compound 6], the IC50 (HAdV5-GFP [1]) is given as 450 nM and the CC50 (A549 cells) is given as 200 µM.
In the case of CC(C)(C)OC(=O)N1CCC(CNC(=O)c2cc(Cl)ccc2O)CC1 [Compound 19, tert-Butyl 4-((5-chloro-2-hydroxybenzamido)methyl)piperidine-1-carboxylate], the inhibition at 10 µM (HAdV5-GFP [3]) is reported as 88.5 ± 1.9%.
In the case of CC(C)(C)OC(=O)N1CCN(CCNC(=O)c2cc(Cl)ccc2O)CC1 [Compound 21, tert-Butyl 4-(2-(5-chloro-2-hydroxybenzamido)ethyl)piperazine-1-carboxylate], the “Plaque Assay (10 μM) (%) Inhibition” value (HAdV5-GFP [3]) is reported as “neither piperazine analogue (21 and 22) nor the morpholine analogue 23 showed meaningful inhibitory activity” and the inhibition at 10 µM (HAdV5-GFP [3]) is reported as 22.2 ± 13.2%.
In the case of O=C(NC1CCOCC1)c1cc(Cl)ccc1O [Compound 14, 5-Chloro-2-hydroxy-N-(tetrahydro-2H-pyran-4-yl)benzamide], the “Plaque Assay (10 μM) (%) Inhibition” value (HAdV5-GFP [3]) is reported as “completely inactive” and the inhibition at 10 µM (HAdV5-GFP [3]) is reported as 0%.
Work on O=C(NCCC1CCCCC1)c1cc(Cl)ccc1O [Compound 20, 5-Chloro-N-(2-cyclohexylethyl)-2-hydroxybenzamide] yielded a CC50 at 48 h [2] of 66.3 ± 7.9 µM, an inhibition at 10 µM (HAdV5-GFP [3]) of 97.8 ± 1.7% and an IC50 (HAdV5-GFP [3]) of 1000 ± 100 nM. For the same molecule, the “Selectivity Index (SI)” value (HAdV5-GFP [3]) was 64.3.
For O=C(c1cc(Cl)ccc1O)N1CCCCC1 [Compound 26, (5-Chloro-2-hydroxyphenyl)(piperidin-1-yl)methanone], the inhibition at 10 µM (HAdV5-GFP [3]) was 0%.
Molecule O=C(NC1CCCCC1)c1cc(Cl)ccc1O [Compound 12, 5-Chloro-N-cyclohexyl-2-hydroxybenzamide] has an inhibition at 10 µM (HAdV5-GFP [3]) of 57.6 ± 0.2%.
Molecule CC(C)(C)OC(=O)NCCCCNC(=O)c1cc(Cl)ccc1O [Compound 25, tert-Butyl (4-(5-chloro-2-hydroxybenzamido)butyl)carbamate] has an inhibition at 10 µM (HAdV5-GFP [3]) of 74 ± 5.7%.
In the case of CC1(Nc2ccc(NC(=O)c3cc(Cl)ccc3O)c(Cl)c2)CCCC1 [Compound 5], the IC50 (HAdV5-GFP [1]) is listed as 270 nM and the CC50 (A549 cells) is listed as 157 µM.
CC(C)(C)OC(=O)N1CCC(NC(=O)c2cc(Cl)ccc2O)CC1 [Compound 15, tert-Butyl 4-(5-chloro-2-hydroxybenzamido)piperidine-1-carboxylate] showed an inhibition at 10 µM (HAdV5-GFP [3]) of 52.2 ± 7.1%.
In the case of O=C(NCCN1CCOCC1)c1cc(Cl)ccc1O [Compound 23, 5-Chloro-2-hydroxy-N-(2-morpholinoethyl)benzamide], the “Plaque Assay (10 μM) (%) Inhibition” value (HAdV5-GFP [3]) is reported as “neither piperazine analogue (21 and 22) nor the morpholine analogue 23 showed meaningful inhibitory activity” and the inhibition at 10 µM (HAdV5-GFP [3]) is reported as 0%.
Work on O=C(NC1CCCC1)c1cc(Cl)ccc1O [Compound 11, 5-Chloro-N-cyclopentyl-2-hydroxybenzamide] yielded an inhibition at 10 µM (HAdV5-GFP [3]) of 22.6 ± 7.4%.
For CN1CCN(CCNC(=O)c2cc(Cl)ccc2O)CC1 [Compound 22, 5-Chloro-2-hydroxy-N-(2-(4-methylpiperazin-1-yl)ethyl)benzamide], the “Plaque Assay (10 μM) (%) Inhibition” value (HAdV5-GFP [3]) was “neither piperazine analogue (21 and 22) nor the morpholine analogue 23 showed meaningful inhibitory activity” and the inhibition at 10 µM (HAdV5-GFP [3]) was 0%.
O=C(NC1CCCCCC1)c1cc(Cl)ccc1O [Compound 13, 5-Chloro-N-cycloheptyl-2-hydroxybenzamide] showed a CC50 at 48 h [2] of 30.9 ± 6.3 µM, an inhibition at 10 µM (HAdV5-GFP [3]) of 99.6 ± 0.2% and an IC50 (HAdV5-GFP [3]) of 4700 ± 100 nM. For the same molecule, the “Selectivity Index (SI)” value (HAdV5-GFP [3]) was 6.6.
CN1CCN(C(=O)c2cc(Cl)ccc2O)CC1 [Compound 28, (5-Chloro-2-hydroxyphenyl)(4-methylpiperazin-1-yl)methanone] gave an inhibition at 10 µM (HAdV5-GFP [3]) of 0%.
